Test results as given in patent US20070015823A1, “Ambruticin VS compounds” (priority 2004, published 2007).
Converted amounts (≈) assume the structure as drawn. Read-outs that look alike come from different tables or passages of the source.

How the values were obtained:
[1] = system: A. flavus ATCC 204304; experiment: Broth microdilution antifungal susceptibility, NCCLS M38-A; format: cell-based, Aspergillus flavus; details: Aspergillus flavus, ATCC204304, read-out: MIC0 A. flavus ATCC 204304
[2] = system: A. fumigatus ATCC 204305; experiment: as above; format: cell-based, Aspergillus fumigatus; details: Aspergillus fumigatus, ATCC204305, read-out: MIC0 A. fumigatus ATCC 204305
[3] = system: Blastomyces dermatitidis; experiment: as above; format: cell-based; details: Blastomyces dermatitidis
[4] = system: Fusarium solani; experiment: as above; format: cell-based; details: Fusarium solani, read-out: MIC F. solani 96-1
[5] = system: S. apiospermum; experiment: as above; format: cell-based, Scedosporium apiospermum; details: Scedosporium apiospermum
[6] = system: Candida parapsilosis; experiment: microbe, parasite or virus in culture; details: Lodderomyces parapsilosis, read-out: MIC0 C. parapsilosis 92019
[7] = system: Cryptococcus neoformans; experiment: Broth microdilution antifungal susceptibility, NCCLS M38-A; details: Cryptococcus neoformans
[8] = system: Candida albicans; details: Candida albicans, read-out: MIC0 C. albicans 90028
[9] = system: Candida krusei; details: Pichia kudriavzevii, read-out: MIC0 C. krusei 6258

Compound: CCC(C)n1ncn(-c2ccc(N3CCN(c4ccc(OCC5COC(Cn6cncn6)(c6ccc(Cl)cc6Cl)O5)cc4)CC3)cc2)c1=O (centres unmarked) [Itraconazole, reference compound]
- MIC [1]: 0.47 µg/mL (≈ 0.666 µM)
- MIC [2]: 0.58 µg/mL (≈ 0.822 µM)
- MIC ([3]; read-out: MIC0 Blastomyces dermatitidis 04-2167): 0.03 µg/mL (≈ 0.0425 µM)
- MIC ([3]; read-out: MIC0 Blastomyces dermatitidis 04-2508): 0.03 µg/mL (≈ 0.0425 µM)
- MIC ([3]; read-out: MIC0 Blastomyces dermatitidis 04-2915): 0.06 µg/mL (≈ 0.085 µM)
- MIC ([3]; read-out: MIC0 Blastomyces dermatitidis 05-106): 0.06 µg/mL (≈ 0.085 µM)
- MIC ([3]; read-out: MIC0 Blastomyces dermatitidis 05-186): 0.06 µg/mL (≈ 0.085 µM)
- MIC ([3]; read-out: MIC0 Blastomyces dermatitidis 05-1391): 0.03 µg/mL (≈ 0.0425 µM)
- MIC ([3]; read-out: MIC0 Blastomyces dermatitidis 05-1707): ≤ 0.015 µg/mL
- MIC ([3]; read-out: MIC0 Blastomyces dermatitidis 05-1820): ≤ 0.015 µg/mL
- MIC ([3]; read-out: MIC0 Blastomyces dermatitidis 05-1829): 0.06 µg/mL (≈ 0.085 µM)
- MIC ([3]; read-out: MIC0 Blastomyces dermatitidis 05-2020): ≤ 0.015 µg/mL
- MIC ([3]; read-out: MIC0 Blastomyces dermatitidis R-3529): ≤ 0.015 µg/mL
- MIC ([3]; read-out: MIC0 Blastomyces dermatitidis R-35629): ≤ 0.015 µg/mL
- MIC [4]: > 4 µg/mL
- MIC ([5]; read-out: MIC S. apiospermum 98-38): 1 to 4 µg/mL (≈ 1.42 to 5.67 µM)
- MIC ([5]; read-out: MIC S. apiospermum 98-89): 1 to 2 µg/mL (≈ 1.42 to 2.83 µM)
- MIC [6]: 0.25 µg/mL (≈ 0.354 µM)
- MIC ([7]; read-out: MIC C. neoformans 97-14): 0.125 µg/mL (≈ 0.177 µM)
- MIC ([7]; read-out: MIC C. neoformans 11239): 0.031 µg/mL (≈ 0.0439 µM)
- MIC ([7]; read-out: MIC C. neoformans 11240): 0.313 µg/mL (≈ 0.444 µM)
- MIC [8]: 0.25 µg/mL (≈ 0.354 µM)
- MIC [9]: 0.25 µg/mL (≈ 0.354 µM)
